Data on 29 compounds can be found in patent US20090291945A1, “CYSTEINE PROTEASE INHIBITORS” (Teijin Pharma Limited, priority 2008, published 2009).

A value given as a limit tells only on which side of the number the result lay.

One series addresses T1, cathepsin K (Homo sapiens, UniProt P43235).
T1 construct: the active enzyme was obtained as the enzyme fraction by using detergent containing lysis buffer; made in house; host or cells: HEK293T (GenHunter Corporation), transient expression; detergent lysate used as enzyme fraction
T1 sequence (P43235 115-329): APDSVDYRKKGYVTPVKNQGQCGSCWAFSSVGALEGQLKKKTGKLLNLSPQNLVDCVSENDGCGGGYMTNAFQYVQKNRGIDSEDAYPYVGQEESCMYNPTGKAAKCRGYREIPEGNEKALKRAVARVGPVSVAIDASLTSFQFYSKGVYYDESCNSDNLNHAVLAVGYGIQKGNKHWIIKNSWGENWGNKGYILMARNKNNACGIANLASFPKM
Description: Cathepsin K inhibitory activity (fluorescent substrate Z-Leu-Arg-MCA). Conditions: enzyme expressed in HEK293T; 15 min preincubation, 30 min reaction at room temperature, pH 5.5; read-out: Activity Intensity (cathepsin K inhibitory activity, pIC50 class) (converted). It counts as biochemical. The procedure, abridged:
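Enzyme was HEK293T-expressed cathepsin K in pH 5.5 acetate buffer with 2 mM DTT, preincubated 15 min at room temperature with compound. Reaction started with Z-Leu-Arg-MCA (solution prepared at 10 μM), run 30 min, and AMC fluorescence read at 355/460 nm. IC50 taken from the curve of % inhibition vs DMSO.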

Series [1] is described as follows: Metabolic stability test using human liver microsome. The format is in vitro ADME. As to conditions: NADPH, 37° C., 25 minutes versus 0 minute, LC/MS peak area. As to the method:
For the compounds synthesized according to the method of the above Examples and the compounds of formula (B) (the compounds disclosed in WO2002/070517), the metabolic stability test using the human liver microsome was performed and the residual rate of each compound was calculated.
To a human liver microsome solution (950 μL) was added a test compound solution (10 μL, 100 μM, acetonitrile solution) on an ice bath and the solution was divided into two equal parts, solution A and solution B. Note that the composition of the human liver microsome solution was as follows.
20 mg/mL protein human liver microsome (Xenotech LLC Lenexa, US): 10 μL 500 mM potassium phosphate buffer solution (pH 7.4): 200 μL 10 mM EDTA solution: 100 μL 60 mM MgCl2 solution: 50 μL 100 mM glucose-6-phosphate solution: 50 μL 100 I.U./mL glucose-6-phosphate dehydrogenase solution: 10 μL purified water: 530 μL
To the solution A (480 μL) was added acetonitrile (500 μL) on an ice bath, and then 25 mM NADPH solution (20 μL) was added. After vortexing, the mixture was centrifuged (3,000 rpm) at 4° C. for 10 minutes, and the supernatant was taken as the sample at the reaction time of 0 minute.
To the solution B (480 μL) was added 25 mM NADPH solution (20 μL). The mixture was incubated at 37° C. for 25 minutes. The reaction was quenched with acetonitrile (500 μL) and vortexing. The mixture was centrifuged (3,000 rpm) at 4° C. for 10 minutes, and the supernatant was taken as the sample at the reaction time of 25 minutes.
LC/MS measurement was performed for the samples at the reaction time of 0 minute and the reaction time of 25 minutes. Based on the peak area of the target molecular weight in the MS measurement, the residual rate of the sample at the reaction time of 25 minutes to the sample at the reaction time of 0 minute was calculated in percentage.
In general terms: Liver microsomes are a subcellular fraction often used to study metabolism.

For the compound `CC[C@@H](CNc1ccc(OC(C)(C)C(=O)O)cc1OC)NC(=O)[C@H](CC(C)(C)F)N[C@@H](c1ccccc1)C(F)(F)F` [Compound 131, 2-{4-[((2S)-2-{(2S)-2-[((1S)-2,2,2-trifluoro-1-phenylethyl)amino]-4-fluoro-4-methylpentanoylamino}butyl)amino]-3-methoxyphenoxy}-2-methylpropanoic acid], the IC50 at cathepsin K was 3.16 to 31.6 nM. Further, the “Residual Rate at 25 minutes (%)” value in series [1] came to 123%.
Take `CC[C@@H](CNc1ccc(OCC(=O)O)cc1OC)NC(=O)[C@H](CC(C)(C)F)N[C@@H](c1ccccc1)C(F)(F)F` [Compound 117, 2-{4-[((2S)-2-{(2S)-2-[((1S)-2,2,2-trifluoro-1-phenylethyl)amino]-4-fluoro-4-methylpentanoylamino}butyl)amino]-3-methoxyphenoxy}acetic acid]: the IC50 at cathepsin K is no more than 3.16 nM. For the same compound, the “Residual Rate at 25 minutes (%)” value in series [1] came out at 111%.
The corresponding values for `COc1ccc(NC[C@H](CCS(C)(=O)=O)NC(=O)[C@H](CC(C)C)N[C@@H](c2ccc(=O)[nH]c2)C(F)(F)F)c(OC)c1` [Compound 81] are 31.6 to 10000 nM and 41%.
As for `CC[C@@H](CNc1ccc(N2CCO[C@@H](C(=O)O)C2)cc1)NC(=O)[C@H](CC(C)C)N[C@@H](c1ccccc1)C(F)(F)F` [Compound 150], the IC50 on cathepsin K is no more than 3.16 nM. For the same compound, the “Residual Rate at 25 minutes (%)” value in series [1] was found to be 96%.
The corresponding values for `CC(C)C[C@H](N[C@@H](c1ccccc1)C(F)(F)F)C(=O)N[C@@H](CCCC(=O)O)CNc1ccc(N2CCOCC2)cc1` [Compound 159, (5S)-5-{(2S)-2-[((1S)-2,2,2-trifluoro-1-phenylethyl)amino]-4-methylpentanoylamino}-6-[(4-morpholin-4-ylphenyl)amino]hexanoic acid] are no more than 3.16 nM and 100%.
Taken in the same sequence, the figures for `CC[C@@H](CNc1ccc(N2CCC(C)(C(=O)O)CC2)cc1)NC(=O)[C@H](CC(C)C)N[C@@H](c1ccccc1)C(F)(F)F` [Compound 154] were no more than 3.16 nM and 74%.
The corresponding values for `CN(C)C[C@@H](CNc1ccc(N2CCOCC2)cc1)NC(=O)[C@H](CC(C)(C)F)N[C@@H](c1ccccc1)C(F)(F)F` [Compound 107] are no more than 3.16 nM and 50%.
As for `CC(C)(F)C[C@H](N[C@@H](c1ccccc1)C(F)(F)F)C(=O)N[C@@H](CCCC(=O)O)CNc1ccc(N2CCOCC2)cc1` [Compound 160, (5S)-5-{(2S)-2-[((1S)-2,2,2-trifluoro-1-phenylethyl)amino]-4-fluoro-4-methylpentanoylamino}-6-[(4-morpholin-4-ylphenyl)amino]hexanoic acid], on cathepsin K, the IC50 was no more than 3.16 nM. In addition, the “Residual Rate at 25 minutes (%)” value in series [1] is given as 90%.
Consider `CC[C@@H](CNc1ccc(OCC(=O)O)cc1OC)NC(=O)[C@H](CC(C)C)N[C@@H](c1cccnc1)C(F)(F)F` [Compound 121], for which the IC50 at cathepsin K is 3.16 to 31.6 nM. In addition, the “Residual Rate at 25 minutes (%)” value in series [1] stood at 105%.
On to `CC[C@@H](CNc1ccc(OC)cc1OC)NC(=O)[C@H](CC(C)(C)F)N[C@@H](c1ccccc1)C(F)(F)F` [Compound 7, (2S)—N-((1S)-1-{[(2,4-dimethoxyphenyl)amino]methyl}propyl)-2-[((1S)-2,2,2-trifluoro-1-phenylethyl)amino]-4-fluoro-4-methylpentanamide], for which the IC50 on cathepsin K is no more than 3.16 nM. For the same compound, the “Residual Rate at 25 minutes (%)” value in series [1] was found to be 0%.
For the compound `CC[C@@H](CNc1ccc(OC(C)C(=O)O)cc1OC)NC(=O)[C@H](CC(C)(C)F)N[C@@H](c1ccccc1)C(F)(F)F` (stereo partly drawn) [Compound 140, 2-{4-[((2S)-2-{(2S)-2-[((1S)-2,2,2-trifluoro-1-phenylethyl)amino]-4-fluoro-4-methylpentanoylamino}butyl)amino]-3-methoxyphenoxy}propanoic acid], the IC50 on cathepsin K was 3.16 to 31.6 nM. In series [1], the “Residual Rate at 25 minutes (%)” value is on record as 101%.
Taken in the same sequence, the figures for `CC[C@@H](CNc1ccc(N2CCOCC2)cc1)NC(=O)[C@H](CC(C)C)N[C@@H](c1ccc(F)cc1)C(F)(F)F` [Compound 36] were no more than 3.16 nM and 0%.
The corresponding values for `CC(C)C[C@H](N[C@@H](c1ccccc1)C(F)(F)F)C(=O)N[C@@H](CC#N)CNc1ccc(N2CCOCC2)cc1` [Compound 93] are 3.16 to 31.6 nM and 63%.
`CC(C)(F)C[C@H](N[C@@H](c1ccccc1)C(F)(F)F)C(=O)N[C@@H](CCN)CNc1ccc(N2CCOCC2)cc1` [Compound 130]: the IC50 on cathepsin K was 3.16 to 31.6 nM. For the same compound, the “Residual Rate at 25 minutes (%)” value in series [1] was determined as 85%.
For the compound `CC[C@@H](CNc1ccc(N2CCC[C@H](C(=O)O)C2)cc1)NC(=O)[C@H](CC(C)(C)F)N[C@@H](c1ccccc1)C(F)(F)F` [Compound 151], on cathepsin K, the IC50 is no more than 3.16 nM. In addition, in series [1], the “Residual Rate at 25 minutes (%)” value amounted to 90%.
For `CC[C@@H](CNc1ccc(N2CCC(C(=O)O)CC2)cc1)NC(=O)[C@H](CC(C)(C)F)N[C@@H](c1ccccc1)C(F)(F)F` [Compound 147], the IC50 on cathepsin K is no more than 3.16 nM. Also, the “Residual Rate at 25 minutes (%)” value in series [1] was 80%.
Consider `CC[C@@H](CNc1ccc(OC(F)(F)C(=O)O)cc1OC)NC(=O)[C@H](CC(C)(C)F)N[C@@H](c1ccccc1)C(F)(F)F` [Compound 141], for which, at cathepsin K, the IC50 was 31.6 to 10000 nM. Besides, the “Residual Rate at 25 minutes (%)” value in series [1] is 70%.
Turning to `CC[C@@H](CNc1ccc(N2CCC(C(=O)O)CC2)cc1)NC(=O)[C@H](CC(C)C)N[C@@H](c1ccccc1)C(F)(F)F` [Compound 145], at cathepsin K, the IC50 was no more than 3.16 nM. Besides, the “Residual Rate at 25 minutes (%)” value in series [1] is recorded as 88%.
`CC[C@@H](CNc1ccc(OC2(C(=O)O)CC2)cc1OC)NC(=O)[C@H](CC(C)C)N[C@@H](Cc1ccccc1)C(F)(F)F` [Compound 124]: the IC50 at cathepsin K is 3.16 to 31.6 nM. Further, the “Residual Rate at 25 minutes (%)” value in series [1] was determined as 87%.
For `CC[C@@H](CNc1ccc(OC2(C(=O)O)CC2)cc1OC)NC(=O)[C@H](CC(C)(C)F)N[C@@H](c1ccccc1)C(F)(F)F` [Compound 118], at cathepsin K, the IC50 is no more than 3.16 nM. Also, the “Residual Rate at 25 minutes (%)” value in series [1] amounted to 76%.
For `CC[C@@H](CNc1ccc(OCC(=O)O)cc1OC)NC(=O)[C@H](CC(C)C)N[C@@H](c1ccc(OC)nc1)C(F)(F)F` [Compound 120], the IC50 on cathepsin K is no more than 3.16 nM. Further, the “Residual Rate at 25 minutes (%)” value in series [1] stood at 108%.
For `CC(C)C[C@H](N[C@@H](c1ccccc1)C(F)(F)F)C(=O)N[C@@H](CCCN)CNc1ccc(N2CCOCC2)cc1` [Compound 127], the IC50 on cathepsin K was 3.16 to 31.6 nM. Also, in series [1], the “Residual Rate at 25 minutes (%)” value turned out to be 87%.
Consider `CC(C)C[C@H](N[C@@H](c1ccccc1)C(F)(F)F)C(=O)N[C@@H](CCCNC(=N)N)CNc1ccc(N2CCOCC2)cc1` [Compound 101], for which, on cathepsin K, the IC50 was no more than 3.16 nM. Further, the “Residual Rate at 25 minutes (%)” value in series [1] came out at 67%.
In the case of `CC[C@@H](CNc1ccc(N2CCOCC2)cc1)NC(=O)[C@H](CC(C)C)N[C@@H](c1ccc(=O)n(C)c1)C(F)(F)F` [Compound 43], at cathepsin K, the IC50 was no more than 3.16 nM. In series [1], the “Residual Rate at 25 minutes (%)” value came to 46%.
The corresponding values for `CC[C@@H](CNc1ccc(-c2ccccc2)cc1)NC(=O)[C@H](CC(C)C)N[C@@H](c1ccc(OC)nc1)C(F)(F)F` [Compound 46] are 31.6 to 10000 nM and 65%.
As for `CC[C@@H](CNc1ccc(N2CCC[C@H](C(=O)O)C2)cc1)NC(=O)[C@H](CC(C)C)N[C@@H](c1ccccc1)C(F)(F)F` [Compound 148], the IC50 at cathepsin K is no more than 3.16 nM. The “Residual Rate at 25 minutes (%)” value in series [1] was found to be 85%.
On to `CC[C@@H](CNc1ccc(N2CCC(C(=O)O)CC2)cc1)NC(=O)[C@H](CC(C)C)N[C@@H](Cc1ccccc1)C(F)(F)F` [Compound 153], for which the IC50 on cathepsin K was 3.16 to 31.6 nM. For the same compound, in series [1], the “Residual Rate at 25 minutes (%)” value was 53%.
Consider `CC[C@@H](CNc1ccc(OCCCC(=O)O)cc1OC)NC(=O)[C@H](CC(C)C)N[C@@H](c1ccccc1)C(F)(F)F` [Compound 155], for which, at cathepsin K, the IC50 is no more than 3.16 nM. The “Residual Rate at 25 minutes (%)” value in series [1] is listed as 31%.
Turning to `CC(C)C[C@H](N[C@@H](c1ccccc1)C(F)(F)F)C(=O)N[C@@H](CCCCN)CNc1ccc(N2CCOCC2)cc1` [Compound 126], the IC50 at cathepsin K was no more than 3.16 nM. In addition, in series [1], the “Residual Rate at 25 minutes (%)” value came out at 90%.
